Assays:
Cyclin E/CDK2 = molecular target: T1, Cyclin E/CDK2 (Homo sapiens, UniProt P24941); assay: CDK2 Assay (Cyclin E/CDK2 in vitro kinase assay); type: biochemical; details: read-out: CDK2 IC50
T1 construct: made in house; host or cells: SF9 cells (baculovirus co-infection)
Excerpt: BACULOVIRUS CONSTRUCTIONS: Cyclin E was cloned into pVL1393 (Pharmingen, La Jolla, Calif.) by PCR, with the addition of 5 histidine residues at the amino-terminal end to allow purification on nickel resin. The expressed protein was approximately 45 kDa. CDK2 was cloned into pVL1393 by PCR, with the addition of a haemaglutinin epitope tag at the carboxy-terminal end (YDVPDYAS). The expressed protein was approximately 34 kDa in size.
ENZYME PRODUCTION: Recombinant baculoviruses expressing cyclin E and CDK2 were co-infected into SF9 cells at an equal multiplicity of infection (MOI=5), for 48 hrs. Cells were harvested by centrifugation at 1000 RPM for 10 minutes, then pellets lysed on ice for 30 minutes in five times the pellet volume of lysis buffer containing 50 mM Tris pH 8.0, 1 50 mM NaCl, 1% NP40, 1 mM DTT and protease inhibitors (Roche Diagnostics GmbH, Mannheim, Germany). Lysates were spun down at 15000 RPM for 10 minutes and the supernatant retained. 5 ml of nickel beads (for one liter of SF9 cells) were washed three times in lysis buffer (Qiagen GmbH, Germany). Imidazole was added to the baculovirus supernatant to a final concentration of 20 mM, then incubated with the nickel beads for 45 minutes at 4° C. Proteins were eluted with lysis buffer containing 250 mM imidazole. Eluate was dialyzed overnight in 2 liters of kinase buffer containing 50 mM Tris pH 8.0, 1 mM DTT, 10 mM MgCl2, 100 uM sodium orthovanadate and 20% glycerol. Enzyme was stored in aliquots at −70° C.
IN VITRO KINASE ASSAY: Cyclin E/CDK2 kinase assays were performed in low protein binding 96-well plates (Corning Inc, Corning, N.Y.). Enzyme was diluted to a final concentration of 50 μg/ml in kinase buffer containing 50 mM Tris pH 8.0, 10 mM MgCl2, 1 mM DTT, and 0.1 mM sodium orthovanadate. The substrate used in these reactions was a biotinylated peptide derived from Histone H1 (from Amersham, UK). The substrate was thawed on ice and diluted to 2 μM in kinase buffer. Compounds were diluted in 10% DMSO to desirable concentrations. For each kinase reaction, 20 μl of the 50 µg/ml enzyme solution (1 μg of enzyme) and 20 μl of the 2 μM substrate solution were mixed, then combined with 10 μl of diluted compound in each well for testing. The kinase reaction was started by addition of 50 μl of 2 μM ATP and 0.1 μCi of 33P-ATP (from Amersham, UK). The reaction was allowed to run for 1 hour at room temperature. The reaction was stopped by adding 200 μl of stop buffer containing 0.1% Triton X-100, 1 mM ATP, 5 mM EDTA, and 5 mg/ml streptavidine coated SPA beads (from Amersham, UK) for 15 minutes. The SPA beads were then captured onto a 96-well GF/B filter plate (Packard/Perkin Elmer Life Sciences) using a Filtermate universal harvester (Packard/Perkin Elmer Life Sciences.). Non-specific signals were eliminated by washing the beads twice with 2M NaCl then twice with 2 M NaCl with 1% phosphoric acid. The radioactive signal was then measured using a TopCount 96 well liquid scintillation counter (from Packard/Perkin Elmer Life Sciences).
(§1) IC50 DETERMINATIONS: Dose-response curves were plotted from inhibition data generated, each in duplicate, from 8 point serial dilutions of inhibitory compounds. Concentration of compound was plotted against % kinase activity, calculated by CPM of treated samples divided by CPM of untreated samples. To generate IC50 values, the dose-response curves were then fitted to a standard sigmoidal curve and IC50 values were derived by nonlinear regression analysis.

recombinant His-CHK1 = molecular target: T2, recombinant His-CHK1 (Homo sapiens, UniProt O14757); assay: CHK1 SPA Assay; type: biochemical; details: read-out: CHK-1 IC50
T2 construct: His-CHK1, In House Lot P976, MW ˜30 KDa, stored at −80 °C; fused on or other part: His tag
T2 sequence (O14757 1-265 limits assumed): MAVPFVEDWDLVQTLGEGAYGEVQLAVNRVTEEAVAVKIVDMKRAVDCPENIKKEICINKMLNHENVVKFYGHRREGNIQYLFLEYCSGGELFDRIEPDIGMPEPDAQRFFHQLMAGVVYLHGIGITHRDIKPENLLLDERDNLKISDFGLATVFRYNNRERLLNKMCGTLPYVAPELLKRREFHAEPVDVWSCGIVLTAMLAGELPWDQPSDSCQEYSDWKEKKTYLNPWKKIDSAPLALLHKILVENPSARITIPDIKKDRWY
Method: An in vitro assay was developed that utilizes recombinant His-CHK1 expressed in the baculovirus expression system as an enzyme source and a biotinylated peptide based on CDC25C as substrate (biotin-[…]).
1) CDC25C Ser 216 C-term Biotinylated peptide substrate (25 mg), stored at −20 °C, Custom Synthesis by Research Genetics: biotin-[…] 2595.4 MW
2) His-CHK1 In House lot P976, 235 ug/mL, stored at −80 °C.
1) Kinase Buffer: 50 mM Tris pH 8.0; 10 mM MgCl2; 1 mM DTT
2) His-CHK1, In House Lot P976, MW ˜30 KDa, stored at −80 °C. […] For 1 plate (100 r×n): dilute 8 μL of 235 μg/mL (7.83 uM) stock in 2 mL Kinase Buffer. This makes a 31 nM mixture. Add 20 μL/well. This makes a final reaction concentration of 6 nM.
3) CDC25C Biotinylated peptide.
Dilute CDC25C to 1 mg/mL (385 uM) stock and store at −20° C. For 1 plate (100 r×n): dilute 10 1L of 1 mg/mL peptide stock in 2 ml Kinase Buffer. This gives a 1.925 μM mix. Add 20 1L/r×n. This makes a final reaction concentration of 385 nM.
For 1 plate (100 r×n): dilute 10 μL of 1 mM ATP (cold) stock and 2 uL fresh P33-ATP (20 μCi) in 5 ml Kinase Buffer. This gives a 2 μM ATP (cold) solution; add 50 μl/well to start the reaction. Final volume is 100 μl/r×n so the final reaction concentrations will be 1 μM ATP (cold) and 0.2 uCi/r×n.
For 1 plate add: To 10 mL Wash Buffer 2 (2M NaCl 1% H3PO4): 1 mL SPA bead slurry (50 mg); Add 100 μL/well
6) Wash buffer 1: 2 M NaCl
7) Wash buffer 2: 2 M NaCl, 1% H3PO4
Dispense 10 μl/r×n to appropriate wells. Add 10 μL 10% DMSO to positive (CHK1+CDC25C+ATP) and negative (CHK1+ATP only) control wells. 2) Thaw enzyme on ice—dilute enzyme to proper concentration in kinase buffer (see Reaction Mixtures) and dispense 20 μl to each well. 3) Thaw the Biotinylated substrate on ice and dilute in kinase buffer (see Reaction Mixtures). Add 20 μL/well except to negative control wells. Instead, add 20 uL Kinase Buffer to these wells. 4) Dilute ATP (cold) and P33-ATP in kinase buffer (see Reaction Mixtures). Add 50 μL/well to start the reaction. 5) Allow the reaction to run for 2 hours at room temperature. 6) Stop reaction by adding 100 uL of the SPA beads/stop solution (see Reaction Mixtures) and leave to incubate for 15 minutes before harvest 7) Place a blank Packard GF/B filter plate into the vacuum filter device (Packard plate harvester) and aspirate […] water through to wet the system. 8) Take out the blank and put in the Packard GF/B filter plate. 9) Aspirate the reaction through the filter plate. 10) Wash: 200 ml each wash; 1× with 2M NaCl; 1× with 2M NaCl/1% H3PO4 11) Allow filter plate to dry 15 min. 12) Put TopSeal-A adhesive on top of filter plate. 13) Run filter plate in Top Count
Settings: • Data mode: CPM • Radio nuclide: Manual SPA:P33 • Scintillator: Liq/plast • Energy Range: Low
as §1

| Structure (SMILES) | IC50 (Cyclin E/CDK2) [nM] | IC50 (recombinant His-CHK1) [nM] |
| --- | --- | --- |
| Cn1cc(-c2cnc3c(Nc4cc(C5CCNCC5)ns4)nccn23)cn1 | 18100 | 31 |
| Cn1cc(-c2cnc3c(Nc4ccns4)nc(CN)cn23)cn1 | 550 | 17 |
| Cc1cc(Nc2nc(C3=CCCNC3)cn3c(-c4cnn(C)c4)cnc23)sc1S(=O)(=O)NC1CC1 [drawing 1469] | 1580 | 3 |
| CCN(CC)S(=O)(=O)c1sc(Nc2nc(C3=CCCNC3)cn3c(-c4cnn(C)c4)cnc23)cc1C | 18300 | 19 |
| Cc1cc(Nc2nc(C3=CCCNC3)cn3c(-c4cnn(C)c4)cnc23)sc1S(=O)(=O)NCCO | 4680 | 6 |
| Cc1cc(Nc2nc(C3CCCNC3)cn3c(-c4cnn(C)c4)cnc23)sn1 (stereo not drawn) | 1100 | 13 |
| CC(C)c1cnsc1Nc1nc(C2=CCCNC2)cn2c(-c3cnn(C)c3)cnc12 | 4210 | 6 |
| Cc1cc(Nc2nc(CC3CCNC3)cn3c(-c4cnn(C)c4)cnc23)sn1 (stereo not drawn) | 607 | 7 |
| Cc1cc(Nc2nc(CC3CCNC3)cn3c(-c4cnn(C)c4)cnc23)sc1S(=O)(=O)N(C)C (stereo not drawn) | 983 | 8 |

Source: patent publication US20070105864A1, “Methods for inhibiting protein kinases” (Schering Corporation, priority 2005, published 2007)
